According to US20150299188A1, “HETEROCYCLIC COMPOUND” (priority 2012, published 2015):

These compounds were tested on FLAP (5-lipoxygenase activating protein) (assay: In vitro binding test: displacement of [3H]-7-chloro-3-(5-((3-fluoropyridin-2-yl)methoxy)-2-methylphenyl)-3,4-dihydroquinazolin-2(1H)-one from Sf9 microsome fractions). Settings: Sf9 microsome fractions expressing FLAP; 100% = radioligand binding with 10 μM sodium 3-(3-(tert-butylsulfanyl)-1-(4-chlorobenzyl)-5-isopropyl-1H-indol-2-yl)-2,2-dimethylpropanoate, 0% = DMSO; test compound concentration not given.
Parameters: species or system human and mouse
Protocol: As an assay buffer, 100 mM Tris-HCl, pH 7.5, 140 mM NaCl, 2 mM EDTA, 0.5 mM dithiothreitol, 5% glycerol, 0.05% Tween20 was used. Sf9 microsome fractions expressing human and mouse FLAPs were dispensed by 50 μL to a 96-well plate at 2 μg/mL. Furthermore, a test compound (25 μL) diluted 4-fold of the final concentration with the assay buffer was added and mixed therewith, and the mixture was incubated at room temperature for 10 min. Furthermore, 120 nM [^3H]-7-chloro-3-(5-((3-fluoropyridin-2-yl)methoxy)-2-methylphenyl)-3,4-dihydroquinazolin-2(1H)-one was added by 25 μL, and mixed therewith, and the mixture was incubated at room temperature for 60 min. Thereafter, the cells were transferred to a 96-well GF/B Unifilter plate with a FilterMate cell harvester, and washed 3 times with a wash buffer (100 mM Tris-HCl pH 7.5, 0.05% Tween20, 200 μL) cooled to 4° C. The GF/B Unifilter plate was dried at 37° C., Microscint 0 was added and measured by TopCount NXT (PerkinElmer). As for the inhibitory activity, the inhibitory rate was calculated wherein the [^3H]-7-chloro-3-(5-((3-fluoropyridin-2-yl)methoxy)-2-methylphenyl)-3,4-dihydroquinazolin-2(1H)-one binding amount in the presence of 10 μM sodium 3-(3-(tert-butylsulfanyl)-1-(4-chlorobenzyl)-5-isopropyl-1H-indol-2-yl)-2,2-dimethylpropanoate was 100%, and the [^3H]-7-chloro-3-(5-((3-fluoropyridin-2-yl)methoxy)-2-methylphenyl)-3,4-dihydroquinazolin-2(1H)-one binding amount in the presence of DMSO was 0%.

SMILES | inhibitory rate (%)
O=C1Nc2ccnc(Cl)c2CN1c1cc2c(cc1Cl)CCC(c1ncccc1F)O2 (racemic) [Example 1, 5-chloro-3-(6-chloro-2-(3-fluoropyridin-2-yl)-3,4-dihydro-2H-chromen-7-yl)-3,4-dihydropyrido[4,3-d]pyrimidin-2(1H)-one] | 94
Cc1cc2c(cc1N1Cc3c(Cl)cnc(-c4c(C)noc4C)c3NC1=O)OC(c1ncccc1F)CC2 (single isomer, unassigned; (+)) [Example 12, (+)-5-chloro-8-(3,5-dimethyl-1,2-oxazol-4-yl)-3-(2-(3-fluoropyridin-2-yl)-6-methyl-3,4-dihydro-2H-chromen-7-yl)-3,4-dihydropyrido[3,4-d]pyrimidin-2(1H)-one] | 99
Cc1cc2c(cc1N1Cc3c(Cl)cnc(-c4c(C)nn(C)c4C)c3NC1=O)OC(c1ncccc1F)CC2 (single isomer, unassigned; (+)) [Example 14, (+)-5-chloro-3-(2-(3-fluoropyridin-2-yl)-6-methyl-3,4-dihydro-2H-chromen-7-yl)-8-(1,3,5-trimethyl-1H-pyrazol-4-yl)-3,4-dihydropyrido[3,4-d]pyrimidin-2(1H)-one] | 105
Cc1cc2c(cc1N1Cc3c(Cl)cnc(-c4c(C)noc4C)c3NC1=O)OC(c1ncccc1F)CC2 (single isomer, unassigned; (-)) [Example 11, (−)-5-chloro-8-(3,5-dimethyl-1,2-oxazol-4-yl)-3-(2-(3-fluoropyridin-2-yl)-6-methyl-3,4-dihydro-2H-chromen-7-yl)-3,4-dihydropyrido[3,4-d]pyrimidin-2(1H)-one] | 109
Cc1cc2c(cc1N1Cc3c(Cl)cnc(-c4c(C)nn(C)c4C)c3NC1=O)OC(c1ncccc1F)CC2 (single isomer, unassigned; (-)) [Example 15, (−)-5-chloro-3-(2-(3-fluoropyridin-2-yl)-6-methyl-3,4-dihydro-2H-chromen-7-yl)-8-(1,3,5-trimethyl-1H-pyrazol-4-yl)-3,4-dihydropyrido[3,4-d]pyrimidin-2(1H)-one] | 102
O=C1Nc2ccnc(Cl)c2CN1c1cc2c(cc1Cl)CC[C@@H](c1ncccc1F)O2 [Example 2, 5-chloro-3-((2S)-6-chloro-2-(3-fluoropyridin-2-yl)-3,4-dihydro-2H-chromen-7-yl)-3,4-dihydropyrido[4,3-d]pyrimidin-2(1H)-one] | 102
O=C1Nc2ccnc(Cl)c2CN1c1cc2c(cc1Cl)CC[C@H](c1ncccc1F)O2 [Example 3, 5-chloro-3-((2R)-6-chloro-2-(3-fluoropyridin-2-yl)-3,4-dihydro-2H-chromen-7-yl)-3,4-dihydropyrido[4,3-d]pyrimidin-2(1H)-one] | 97
Cc1cc2c(cc1N1Cc3c(ccnc3C(F)(F)F)NC1=O)OC(c1ncccc1F)CC2 (stereo not shown) [Example 4, 3-(2-(3-fluoropyridin-2-yl)-6-methyl-3,4-dihydro-2H-chromen-7-yl)-5-(trifluoromethyl)-3,4-dihydropyrido[4,3-d]pyrimidin-2(1H)-one] | 103
Cc1cc2c(cc1N1Cc3c(ccnc3C(F)(F)F)NC1=O)O[C@@H](c1ncccc1F)CC2 [Example 5, 3-((2R)-2-(3-fluoropyridin-2-yl)-6-methyl-3,4-dihydro-2H-chromen-7-yl)-5-(trifluoromethyl)-3,4-dihydropyrido[4,3-d]pyrimidin-2(1H)-one] | 100
Cc1cc2c(cc1N1Cc3c(ccnc3C(F)(F)F)NC1=O)O[C@H](c1ncccc1F)CC2 [Example 6, 3-((2S)-2-(3-fluoropyridin-2-yl)-6-methyl-3,4-dihydro-2H-chromen-7-yl)-5-(trifluoromethyl)-3,4-dihydropyrido[4,3-d]pyrimidin-2(1H)-one] | 98
Cc1ncc(Cl)c2c1NC(=O)N(c1cc3c(cc1Cl)CCC(c1ncccc1F)O3)C2 (stereo not shown) [Example 7, 5-chloro-3-(6-chloro-2-(3-fluoropyridin-2-yl)-3,4-dihydro-2H-chromen-7-yl)-8-methyl-3,4-dihydropyrido[3,4-d]pyrimidin-2(1H)-one] | 98
Cc1ncc(Cl)c2c1NC(=O)N(c1cc3c(cc1Cl)CC[C@H](c1ncccc1F)O3)C2 [Example 8, 5-chloro-3-((2R)-6-chloro-2-(3-fluoropyridin-2-yl)-3,4-dihydro-2H-chromen-7-yl)-8-methyl-3,4-dihydropyrido[3,4-d]pyrimidin-2(1H)-one] | 103
Cc1ncc(Cl)c2c1NC(=O)N(c1cc3c(cc1Cl)CC[C@@H](c1ncccc1F)O3)C2 [Example 9, 5-chloro-3-((2S)-6-chloro-2-(3-fluoropyridin-2-yl)-3,4-dihydro-2H-chromen-7-yl)-8-methyl-3,4-dihydropyrido[3,4-d]pyrimidin-2(1H)-one] | 104
Cc1cc2c(cc1N1Cc3c(Cl)cnc(-c4c(C)noc4C)c3NC1=O)OC(c1ncccc1F)CC2 (stereo not shown) [Example 10, 5-chloro-8-(3,5-dimethyl-1,2-oxazol-4-yl)-3-(2-(3-fluoropyridin-2-yl)-6-methyl-3,4-dihydro-2H-chromen-7-yl)-3,4-dihydropyrido[3,4-d]pyrimidin-2(1H)-one] | 94
Cc1cc2c(cc1N1Cc3c(Cl)cnc(-c4c(C)nn(C)c4C)c3NC1=O)OC(c1ncccc1F)CC2 (stereo not shown) [Example 13, 5-chloro-3-(2-(3-fluoropyridin-2-yl)-6-methyl-3,4-dihydro-2H-chromen-7-yl)-8-(1,3,5-trimethyl-1H-pyrazol-4-yl)-3,4-dihydropyrido[3,4-d]pyrimidin-2(1H)-one] | 101
COc1cc2c(c(C3CC3)n1)CN(c1cc3c(cc1Cl)CCC(c1ncccc1F)O3)C(=O)N2 (stereo not shown) [Example 16, 3-(6-chloro-2-(3-fluoropyridin-2-yl)-3,4-dihydro-2H-chromen-7-yl)-5-cyclopropyl-7-methoxy-3,4-dihydropyrido[4,3-d]pyrimidin-2(1H)-one] | 102
O=C1Nc2cc(=O)[nH]c(C3CC3)c2CN1c1cc2c(cc1Cl)CCC(c1ncccc1F)O2 (stereo not shown) [Example 17, 3-(6-chloro-2-(3-fluoropyridin-2-yl)-3,4-dihydro-2H-chromen-7-yl)-5-cyclopropyl-4,6-dihydropyrido[4,3-d]pyrimidine-2,7(1H,3H)-dione] | 110
O=C1Nc2cc(OC(F)F)nc(C3CC3)c2CN1c1cc2c(cc1Cl)CCC(c1ncccc1F)O2 (stereo not shown) [Example 18, 3-(6-chloro-2-(3-fluoropyridin-2-yl)-3,4-dihydro-2H-chromen-7-yl)-5-cyclopropyl-7-(difluoromethoxy)-3,4-dihydropyrido[4,3-d]pyrimidin-2(1H)-one] | 88
O=C1Nc2cc(OC(F)F)nc(C3CC3)c2CN1c1cc2c(cc1Cl)CC[C@H](c1ncccc1F)O2 [Example 19, 3-((2R)-6-chloro-2-(3-fluoropyridin-2-yl)-3,4-dihydro-2H-chromen-7-yl)-5-cyclopropyl-7-(difluoromethoxy)-3,4-dihydropyrido[4,3-d]pyrimidin-2(1H)-one] | 102
O=C1Nc2cc(OC(F)F)nc(C3CC3)c2CN1c1cc2c(cc1Cl)CC[C@@H](c1ncccc1F)O2 [Example 20, 3-((2S)-6-chloro-2-(3-fluoropyridin-2-yl)-3,4-dihydro-2H-chromen-7-yl)-5-cyclopropyl-7-(difluoromethoxy)-3,4-dihydropyrido[4,3-d]pyrimidin-2(1H)-one] | 96
COc1nccc2c1CN(c1cc3c(cc1C)CCC(c1ncccc1F)O3)C(=O)N2 (stereo not shown) [Example 21, 3-(2-(3-fluoropyridin-2-yl)-6-methyl-3,4-dihydro-2H-chromen-7-yl)-5-methoxy-3,4-dihydropyrido[4,3-d]pyrimidin-2 (1H)-one] | 103
Cc1cc2c(cc1N1Cc3c(Cl)cncc3NC1=O)OC(c1ncccc1F)CC2 (stereo not shown) [Example 22, 5-chloro-3-(2-(3-fluoropyridin-2-yl)-6-methyl-3,4-dihydro-2H-chromen-7-yl)-3,4-dihydropyrido[3,4-d]pyrimidin-2(1H)-one] | 109
COc1cncc2c1CN(c1cc3c(cc1C)CCC(c1ncccc1F)O3)C(=O)N2 (stereo not shown) [Example 23, 3-(2-(3-fluoropyridin-2-yl)-6-methyl-3,4-dihydro-2H-chromen-7-yl)-5-methoxy-3,4-dihydropyrido[3,4-d]pyrimidin-2(1H)-one] | 92
Cc1cc2c(cc1N1Cc3c(ccnc3C(F)F)NC1=O)OC(c1ncccc1F)CC2 (stereo not shown) [Example 24, 5-(difluoromethyl)-3-(2-(3-fluoropyridin-2-yl)-6-methyl-3,4-dihydro-2H-chromen-7-yl)-3,4-dihydropyrido[4,3-d]pyrimidin-2 (1H)-one] | 96
Cc1cc2c(cc1N1Cc3c(ccnc3C3CC3)NC1=O)OC(c1ncccc1F)CC2 (stereo not shown) [Example 25, 5-cyclopropyl-3-(2-(3-fluoropyridin-2-yl)-6-methyl-3,4-dihydro-2H-chromen-7-yl)-3,4-dihydropyrido[4,3-d]pyrimidin-2(1H)-one] | 99
